Data on nine compounds can be found in EP1213282A1, “Substituted imidazolium salts and their use for the inhibition of protein ageing” (ALTEON Inc., priority 1996, dated 1997).

pIC50: −log10 of the molar value. Like-named read-outs stand apart in the source and are kept apart here.

The target in data set [1] is T1, cross-linking of glycated bovine serum albumin (AGE-BSA) to the rat tail tendon collagen (Bos taurus, UniProt P02769).
T1 construct: The AGE-BSA was prepared by incubating BSA at a concentration of 200 mg per ml with 200 mM glucose
Put plainly: Inhibition of cross-linking of glycated BSA (AGE-BSA) to collagen-coated plate, ELISA (Example 4). It is filed as biochemical. The settings on record: for inhibition at 10000 µM: 4 h. The procedure:
The following method was used to evaluate the ability of the compounds of the present invention to inhibit the cross-linking of glycated bovine serum albumin (AGE-BSA) to the rat tail tendon collagen coated 96-well plate.
The glycated BSA was then extensively dialyzed against phosphate buffer solution (PBS) for 48 hours with additional 5 times buffer exchanges. […] The blocking solution was removed from the wells by washing the plate twice with PAS-Tween 20 solution (0.05% Tween 20) using a NUNC-multiprobe or Dynatech ELISA-plate washer. […] The unbrowned BSA in PBS buffer with or without testing compound were added to the separate wells as the blanks. The uncross-linked AGE-BSA was then removed by washing the wells three times with PBS-Tween buffer. The cross-linked AGE-BSA to the tail tendon coated plate was then quantitated by the polyclonal antibody raised against AGE-RNase. After a one-hour incubation period, AGE antibody was removed by washing 4 times with PBS-Tween.
The bound AGE antibody was then detected with the addition of horseradish peroxidase-conjugated secondary antibody, e.g., goat anti-rabbit immunoglobulin and incubation for 30 minutes. […] The reaction was allowed for an additional 15 minutes and the absorbance was read at 410 nm in a Dynatech plate reader.
A general note: ELISA stands for enzyme-linked immunosorbent assay.

A short description of data set [2]: Inhibition of ribose-induced cross-linking of N-acetyl glycyl-lysine methyl ester, fluorescence (Example 5). It is filed as biochemical. Particulars: 37°C, 16-24 hours, pH 7.4; fluorescence 350/400 nm. The procedure:
Materials: • N-acetylglycyllysine methyl ester (DP in formula below) • Ribose (R in formula below) • Test compounds (C in formula below)
Reagents: • 0.5 M sodium phosphate buffer pH 7.4 • N-acetylglycyllysine methyl ester in 0.5M sodium phosphate buffer, pH 7.4 Ribose: 800 mM
Test compounds dissolved in the above buffer and the pH is adjusted to 7.4, if necessary
Reaction mixtures are prepared as follows:
and incubated at 37°C for 16-24 hours. At the end of the incubation period, the fluorescence is read using an excitation wavelength of 350 nm and emission wavelength of 400 nm. The inhibition of the cross-linking is calculated from the decrease in the fluorescence in the presence of the test compounds according to the formula: […] [formula]
The Inhibition by various test compounds (IC50) is as follows: […]

In data set [3] the target is T2, AGE-BSA previously crosslinked to the collagen (Bos taurus, UniProt P02769).
T2 construct: purchased Calbiochem (BSA Type V); Collaborative Biomedical Products (Biocoat collagen plates)
The data set is described as follows: AGE cross-link breaking sandwich enzyme immunoassay (Example 6). It is filed as biochemical. Particulars: 10 mM, 16 hours, 37°C. As for the experimental part:
In order to ascertain the ability of the compounds of the instant invention to "break" or reverse already formed advanced glycosylation endproducts, a novel sandwich enzyme immunoassay was developed which detects breaking of AGE (Advanced glycosylation endproduct) moieties from AGE-crosslinked protein. The assay utilizes collagen-coated 96 well microtiter plates that are obtained commercially. AGE-modified protein (AGE-BSA), prepared, for instance, as in Example 8, above, is incubated on the collagen-coated wells for four hours, is washed off the wells with PBS-Tween and solutions of the test compounds are added. Following an incubation period of 16 hours (37°C) cross-link-breaking is detected using an antibody raised against AGE-ribonuclease or with an antibody against BSA. Positive results in this assay indicate compounds that are capable of reducing the amount of AGE-BSA previously crosslinked to the collagen by breaking the crosslinks and allowing the liberated material to be flushed away in subsequent washing steps. Details of the assay are as follows:
• 1. AGE-BSA stock solutions were prepared as follows. Sodium phosphate buffer (0.4 M) was prepared by dissolving 6 grams of monobasic sodium phosphate in 100 ml of distilled water, 7 grams of dibasic sodium phosphate (0.4 M) in 100 ml of distilled water and adjusting the pH of the dibasic solution to 7.4 with the monobasic solution. Sodium azide (0.02 grams) was added per 100 ml volume to inhibit bacterial growth. The BSA solution was prepared as follows: 400 mg of Type V BSA (bovine serum albumin) was added for each ml of sodium phosphate buffer (above). A 400 mM glucose solution was prepared by dissolving 7.2 grams of dextrose in 100 ml of sodium phosphate buffer (above). The BSA and glucose solutions were mixed 1:1 and incubated at 37°C for 12 weeks. The pH of the incubation mixture was monitored weekly and adjusted to pH 7.4 if necessary. After 12 weeks, the AGE-BSA solution was dialyzed against PBS for 48 hours with four buffer changes, each at a 1:500 ratio of solution to dialysis buffer. Protein concentration was determined by the micro-Lowry method. The AGE-BSA stock solution was aliquoted and stored at -20°C. Dilute solutions of AGE-BSA were unstable when stored at -20°C. • 2. Working solutions for crosslinking and breaking studies were prepared as follows. Test compounds were dissolved in PBS and the pH was adjusted to pH 7.4 if necessary. AGE-BSA stock solution was diluted in PBS to measure maximum crosslinking. The concentration of AGE-BSA necessary to achieve the optimum sensitivity was determined by initial titration of each lot of AGE-BSA. • 3. Wash buffer ("PBS-Tween") was prepared as follows. PBS was prepared by dissolving the following salts in one liter of distilled water: NaCl, 8 grams; KCl, 0.2 gram, KH2PO4. 1.15 grams; NaN3, 0.2 gram. Tween-20 was added to a final concentration of 0.05% (vol/vol). • 4. Substrates for detection of secondary antibody binding were prepared by diluting the HRP substrate buffer 1:10 in distilled water and mixing with ABTS chromogen 1:50 just prior to use.
• 1. Biocoat plates were blocked with 300 µl of "Superbloc". Plates were blocked for one hour at room temperature and were washed with PBS-Tween three times with the Dynatech platewasher before addition of test reagents. • 2. Each experiment was set up in the following manner. The first three wells of the Biocoat plate were used for the reagent blank. Fifty microliters of solutions AGE-BSA were added to test wells in triplicate and only PBS in blank wells. The plate was incubated at 37°C for four hours and washed with PBS-Tween three times. Fifty microliters of PBS was added to the control wells and 50 µl of the test "AGE Cross-link breaker" compound was added to the test wells and blank. The plate was incubated overnight (approximately 16 hours) with the test "AGE Cross-link breaker" compound, followed by washing in PBS-Tween before addition of primary antibody (below). • 3. […]

Data set [4] concerns fixed protein (gelatin. i.e., collagen) surface. The data set is described as follows: Surface browning experiment on gelatin/paper disks (Example 10). Particulars: 100 Mm glucose-6-phosphate, one week at 50°C; Peridex at final 0.04% chlorhexidine. The procedure: To further study the ability of inhibitors of nonenzymatic browning to prevent the discoloration of protein on a surface, such as that which occurs on the tooth surface, the following surface browning experiment is performed. As a substitute for a pellicle-covered tooth surface. unexposed and developed photographic paper is used to provide a fixed protein (gelatin. i.e., collagen) surface on a paper backing. Five millimeter circles are punched and immersed for one week at 50°C in a solution of 100 Mm glucose-6-phosphate in a 0.5 M phosphate buffer, pH 7.4, containing 3 Mm sodium azide. Glucose-6-phosphate is a sugar capable of participating in nonenzymatic browning at a more rapid rate than glucose. In addition to the glucose-6-phosphate, chlorhexidine and/or a compound of Formula I are included. After incubation, the gelatin/paper disks are rinsed with water, observed for brown color, and photographed.

Where [5] appears, read: pH 7.4, at 10 mM, 37°C, 4 hours, pH 7.4, read-out: %Inh.
The mark [6] stands for this setting: primary antibody anti-AGE-RNase, read-out: %breaking allowed, Pr AbαAGE.
The mark [7] stands for this setting: primary antibody anti-BSA, read-out: %breaking allowed, PrAbαBSA.

T1 sequence (P02769 25-607): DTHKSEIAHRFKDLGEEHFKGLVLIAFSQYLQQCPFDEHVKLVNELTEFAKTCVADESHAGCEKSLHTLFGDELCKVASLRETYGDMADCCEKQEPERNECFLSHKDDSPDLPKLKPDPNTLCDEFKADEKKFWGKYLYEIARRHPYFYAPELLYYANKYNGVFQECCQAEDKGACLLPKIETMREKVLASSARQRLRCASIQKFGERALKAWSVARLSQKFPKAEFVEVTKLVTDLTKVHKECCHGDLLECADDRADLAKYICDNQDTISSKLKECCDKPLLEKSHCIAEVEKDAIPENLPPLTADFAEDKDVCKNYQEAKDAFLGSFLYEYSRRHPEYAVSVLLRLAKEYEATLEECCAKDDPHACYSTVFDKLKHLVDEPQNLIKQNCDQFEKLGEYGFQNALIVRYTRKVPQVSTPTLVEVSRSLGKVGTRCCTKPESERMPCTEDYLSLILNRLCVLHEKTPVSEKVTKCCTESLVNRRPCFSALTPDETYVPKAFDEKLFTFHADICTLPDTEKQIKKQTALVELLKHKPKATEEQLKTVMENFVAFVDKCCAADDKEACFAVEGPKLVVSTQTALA
T2 sequence (P02769 25-607): as above
T2 sequence (P02454 152-1207 partner limits assumed): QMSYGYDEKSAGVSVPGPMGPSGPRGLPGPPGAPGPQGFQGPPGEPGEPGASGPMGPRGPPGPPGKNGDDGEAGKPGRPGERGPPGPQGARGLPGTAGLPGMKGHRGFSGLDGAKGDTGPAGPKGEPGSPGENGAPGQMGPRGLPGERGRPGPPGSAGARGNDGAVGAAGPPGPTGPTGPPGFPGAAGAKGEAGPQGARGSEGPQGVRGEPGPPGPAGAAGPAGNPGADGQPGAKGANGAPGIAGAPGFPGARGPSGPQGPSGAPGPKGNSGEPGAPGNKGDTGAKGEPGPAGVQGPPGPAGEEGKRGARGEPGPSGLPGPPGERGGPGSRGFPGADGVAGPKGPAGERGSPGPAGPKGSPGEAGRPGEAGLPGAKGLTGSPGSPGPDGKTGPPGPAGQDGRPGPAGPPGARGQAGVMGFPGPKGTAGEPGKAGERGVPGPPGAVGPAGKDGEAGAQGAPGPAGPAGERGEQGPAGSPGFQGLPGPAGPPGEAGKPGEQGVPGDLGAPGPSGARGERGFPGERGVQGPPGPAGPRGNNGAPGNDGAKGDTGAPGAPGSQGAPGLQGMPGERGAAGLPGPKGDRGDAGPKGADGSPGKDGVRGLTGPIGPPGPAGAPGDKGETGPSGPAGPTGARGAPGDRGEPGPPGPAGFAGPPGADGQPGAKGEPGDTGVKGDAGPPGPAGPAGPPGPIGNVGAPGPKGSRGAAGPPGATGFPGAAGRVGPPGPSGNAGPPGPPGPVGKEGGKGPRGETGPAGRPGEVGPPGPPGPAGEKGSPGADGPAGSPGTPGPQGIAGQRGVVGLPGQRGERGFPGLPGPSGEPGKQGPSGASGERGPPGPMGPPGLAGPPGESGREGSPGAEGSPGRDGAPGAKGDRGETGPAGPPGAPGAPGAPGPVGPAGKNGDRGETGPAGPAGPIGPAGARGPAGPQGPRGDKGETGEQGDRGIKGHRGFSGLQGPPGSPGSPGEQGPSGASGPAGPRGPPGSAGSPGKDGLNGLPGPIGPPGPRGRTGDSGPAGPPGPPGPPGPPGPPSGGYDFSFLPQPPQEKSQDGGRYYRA
T2 sequence (P02466 86-1125 partner limits assumed): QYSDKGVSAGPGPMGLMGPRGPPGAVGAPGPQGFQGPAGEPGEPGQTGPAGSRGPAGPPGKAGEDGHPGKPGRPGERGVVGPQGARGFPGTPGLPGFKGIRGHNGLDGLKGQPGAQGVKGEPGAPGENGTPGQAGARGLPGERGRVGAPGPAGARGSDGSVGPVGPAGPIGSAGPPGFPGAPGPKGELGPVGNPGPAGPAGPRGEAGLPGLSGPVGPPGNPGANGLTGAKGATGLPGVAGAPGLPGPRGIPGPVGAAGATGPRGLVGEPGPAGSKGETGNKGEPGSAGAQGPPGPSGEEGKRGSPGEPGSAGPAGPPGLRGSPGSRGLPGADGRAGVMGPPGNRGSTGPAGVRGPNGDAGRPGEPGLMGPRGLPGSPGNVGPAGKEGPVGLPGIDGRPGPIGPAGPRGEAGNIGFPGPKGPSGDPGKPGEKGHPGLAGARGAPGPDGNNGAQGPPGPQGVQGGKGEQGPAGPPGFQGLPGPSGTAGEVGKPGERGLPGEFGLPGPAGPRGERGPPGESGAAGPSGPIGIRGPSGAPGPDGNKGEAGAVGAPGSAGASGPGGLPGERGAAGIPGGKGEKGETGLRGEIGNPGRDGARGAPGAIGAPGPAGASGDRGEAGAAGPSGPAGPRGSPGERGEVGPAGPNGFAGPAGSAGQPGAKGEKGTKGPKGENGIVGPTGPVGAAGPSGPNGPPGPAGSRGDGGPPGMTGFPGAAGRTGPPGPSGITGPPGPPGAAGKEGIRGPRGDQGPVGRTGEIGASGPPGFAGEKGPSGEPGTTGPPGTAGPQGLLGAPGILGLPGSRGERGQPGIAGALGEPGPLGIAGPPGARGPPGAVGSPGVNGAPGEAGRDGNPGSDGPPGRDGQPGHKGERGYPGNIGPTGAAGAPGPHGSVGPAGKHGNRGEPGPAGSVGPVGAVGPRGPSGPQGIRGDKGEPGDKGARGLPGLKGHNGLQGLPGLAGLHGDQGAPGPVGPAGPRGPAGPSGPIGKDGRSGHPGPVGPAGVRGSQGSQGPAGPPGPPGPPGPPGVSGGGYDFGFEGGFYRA

Consider `CCOC(=O)CCCCCn1cc[n+](CC(=O)c2cccc(OC)c2)c1` [1-(ethoxycarbonylpentyl)-3-[2-(3'-methoxyphenyl)-2-oxoethyl]-imidazolium bromide], for which the inhibition at 10000 µM in data set [1] (setting [5]) turned out to be 40%. With `CCOC(=O)CCCCCn1cc[n+](CC(=O)c2ccc(OC)cc2)c1` [1-(ethoxycarbonylpentyl)-3-[2-(4'-methoxyphenyl)-2-oxoethyl]-imidazolium bromide], the inhibition at 10000 µM in data set [1] (setting [5]) stood at 23%. Further, the “%Inh.” value in data set [1] (at 10 mM, 37°C, 4 hours, pH 7.4, 240 min, 10000 µM) amounted to 40%. In the case of `CCOC(=O)CCCCCn1cc[n+](CC(=O)c2ccc(C)cc2)c1` [1-(ethoxycarbonylpentyl)-3-[2-(4'-methylphenyl)-2-oxoethyl]-imidazolium bromide], the inhibition at 10000 µM in data set [1] (setting [5]) worked out at 33%. Consider `CCN(CC)c1ccc(C(=O)C[n+]2ccn(C)c2)cc1` [1-Methyl-3-[2-(4'-diethylaminophenyl)-2-oxo-ethyl]-imidazolium bromide], for which the pIC50 – broadly, the IC50 on a negative log10 scale, so that one unit is a factor of ten – in data set [2] was 3.28. In addition, the inhibition at 10000 µM in data set [3] (setting [6]) stood at 32%; in data set [3] (setting [7]) it was 28%.

For the compound `COc1cccc(C(=O)C[n+]2ccn(C)c2)c1` [1-methyl-3-[2-(3'-methoxyphenyl)-2-oxoethyl]-imidazolium bromide], the inhibition at 10000 µM in data set [3] (setting [6]) is 20%; in data set [3] (setting [7]) it was 24%. Turning to `Cn1cc[n+](CC(=O)c2ccc(Br)cc2)c1` [1-methyl-3-[2-(4'-bromophenyl)-2-oxoethyl]-imidazolium bromide], in data set [1] (pH 7.4, read-out: %Inh.), the inhibition at 10000 µM was 23%. For the compound `Cn1cc[n+](CC(=O)c2ccc(F)cc2)c1` [1-methyl-3-[2-(4'-fluorophenyl)-2-oxoethyl]-imidazolium bromide], in data set [1] (setting [5]), the inhibition at 10000 µM is 29%. As for `COc1ccc(C(=O)C[n+]2ccn(C)c2)cc1` [1-methyl-3-[2-(4'-methoxyphenyl)-2-oxoethyl]-imidazolium bromide], the inhibition at 10000 µM was 38% in data set [3] (setting [6]) and 27% in data set [3] (setting [7]). In the case of `[H]/N=C(\N/C(=N/[H])NCCCCCCNC(=N)NC(=N)Nc1ccc(Cl)cc1)Nc1ccc(Cl)cc1` [chlorhexidine], the “brown color of gelatin/paper disks” value in data set [4] is listed as “significant browning”.
